Measurements as given in patent US8309579B2, “N-hydroxyamide derivatives and use thereof” (Merck Serono SA, priority 2005, dated 2012).

What was measured:
collagenase (MMP-1) = target: T1, collagenase (MMP-1) (Homo sapiens, UniProt P03956); assay: MMP-1 enzyme inhibition assay (coumarin-labelled peptide substrate); format: biochemical
T1 sequence (P03956 100-469): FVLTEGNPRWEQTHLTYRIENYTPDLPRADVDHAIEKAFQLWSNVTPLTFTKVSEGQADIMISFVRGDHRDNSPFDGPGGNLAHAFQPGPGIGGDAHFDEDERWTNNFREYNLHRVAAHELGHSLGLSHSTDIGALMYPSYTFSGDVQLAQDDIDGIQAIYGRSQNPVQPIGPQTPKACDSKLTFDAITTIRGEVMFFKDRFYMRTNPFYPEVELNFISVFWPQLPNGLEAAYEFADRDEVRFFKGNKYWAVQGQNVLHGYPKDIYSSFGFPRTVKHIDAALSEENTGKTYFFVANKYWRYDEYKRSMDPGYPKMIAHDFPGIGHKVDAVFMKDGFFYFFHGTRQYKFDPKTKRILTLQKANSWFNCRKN
Procedure: (§1) Stock solutions were made up as follows: Assay Butter: 100 mM Tris-HCl pH 7.6 containing 100 mM NaCl, 10 mM CaCl2, and 0.05% Brij 35.
(§2) Substrate: 0.4 mM McaPLGLDpaAR (from Bachem) (0.437 mg/ml) stock solution in 100% DMSO (stored at −20° C.). Dilute to 8 μM in assay butter.
(§3) Test Compounds were prepared initially as 10 mM compound solution in 100% DMSO, diluted to 1 mM in 100% DMSO, then serially diluted 3-fold in 100% DMSO across columns 1-10 of a 96-well microtitre plate Assay concentration range, 100 μM (column 1) to 5.1 nM (column 10).
(§4) The assay was performed in a total volume of 100 μL per well in 96-well microtitre plates. Activated enzyme (20 μL) was added to the wells followed by 20 μL of assay butter. Appropriate concentrations of test compounds dissolved in 10 μL of DMSO were then added followed by 50 μL of McaPLGLDpaAR (8 μM, prepared by dilution of DMSO stock in assay butter). For each assay ten concentrations of test compound were examined in duplicate. Control wells lack either enzyme or test compound. The reactions were incubated at 37° C. for 2 hours. The fluorescence at 405 nm was measured immediately with an SLT Fluostar fluorometer (SL T Labinstruments GmbH, Grödig, Austria) using 320 nm excitation, without stopping the reaction.
(§5) The effect of the test compound was determined from the dose response curve generated by the 10 duplicate concentrations of inhibitor. […]

gelatinase A (MMP-2) = target: T2, gelatinase A (MMP-2) (Homo sapiens, UniProt P08253); assay: MMP-2 enzyme inhibition assay (coumarin-labelled peptide substrate); format: biochemical
T2 sequence (P08253 110-660): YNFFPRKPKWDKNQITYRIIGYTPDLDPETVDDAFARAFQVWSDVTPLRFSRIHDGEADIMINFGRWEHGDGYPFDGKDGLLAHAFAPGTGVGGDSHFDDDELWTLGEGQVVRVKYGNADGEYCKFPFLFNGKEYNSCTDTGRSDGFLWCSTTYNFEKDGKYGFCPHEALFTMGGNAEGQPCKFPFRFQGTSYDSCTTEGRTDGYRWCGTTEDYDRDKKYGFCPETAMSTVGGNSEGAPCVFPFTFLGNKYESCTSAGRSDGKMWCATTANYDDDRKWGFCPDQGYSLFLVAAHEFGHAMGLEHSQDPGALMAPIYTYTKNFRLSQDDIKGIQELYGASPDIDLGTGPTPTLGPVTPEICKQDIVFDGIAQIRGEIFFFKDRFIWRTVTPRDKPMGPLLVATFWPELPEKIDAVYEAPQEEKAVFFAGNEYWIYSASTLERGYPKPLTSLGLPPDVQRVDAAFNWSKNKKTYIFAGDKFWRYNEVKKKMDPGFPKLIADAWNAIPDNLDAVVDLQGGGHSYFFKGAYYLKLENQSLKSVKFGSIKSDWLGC
Procedure: as §1, §2, §3, §4, §5

[1] = tested on: IL-2-induced peritoneal recruitment of lymphocytes; assay: IL-2-induced peritoneal recruitment of lymphocytes; format: in vivo, C3H/HEN mice; conditions: mice, 3 mg/kg p.o., 15 min prior to IL-2; cells collected 24 h after IL-2
Procedure: Administration of IL-2 intraperitoneally causes migration of lymphocytes into the intraperitoneal cavity. This is a model for the cellular migration that occurs during inflammation.
C3H/HEN mice (Elevage Janvier, France) were intraperitoneally injected with IL-2 (20 μg/kg, in saline).
Compounds of the invention were suspended in 0.5% carboxymethylcellulose (CMC)/0.25% tween-20 and were administered by s.c. or p.o. route (10 ml/kg) 15 min prior to administration of IL-2.
Twenty-four hours after administration of IL-2, peritoneal white blood cells were collected by 3 successive lavages of the peritoneal cavity with 5 ml phosphate buffered saline (PBS)-1 mM EDTA (+4° C.). The suspension was centrifuged (1700 g×10 min at +4° C.). The resulting pellet was suspended in 1 ml PBS-1 mM EDTA.
Lymphocytes were identified and counted using a Beckman/Coulter counter.
The animals were divided into 6 groups (6 mice each group):
Inhibition of lymphocyte recruitment was calculated as follows:
Where Ly 1=Number of lymphocytes in group 1 (E3/μl), Ly 2=Number of lymphocytes in group 2 (E3/μl), Ly X=Number of lymphocytes in group X (3-5) (E3/μl).

metalloelastase (MMP-12) = metalloelastase (MMP-12) (Homo sapiens, UniProt P39900); assay: MMP-12 enzyme inhibition assay (coumarin-labelled peptide substrate); format: biochemical
Sequence of metalloelastase (MMP-12) (P39900 106-470): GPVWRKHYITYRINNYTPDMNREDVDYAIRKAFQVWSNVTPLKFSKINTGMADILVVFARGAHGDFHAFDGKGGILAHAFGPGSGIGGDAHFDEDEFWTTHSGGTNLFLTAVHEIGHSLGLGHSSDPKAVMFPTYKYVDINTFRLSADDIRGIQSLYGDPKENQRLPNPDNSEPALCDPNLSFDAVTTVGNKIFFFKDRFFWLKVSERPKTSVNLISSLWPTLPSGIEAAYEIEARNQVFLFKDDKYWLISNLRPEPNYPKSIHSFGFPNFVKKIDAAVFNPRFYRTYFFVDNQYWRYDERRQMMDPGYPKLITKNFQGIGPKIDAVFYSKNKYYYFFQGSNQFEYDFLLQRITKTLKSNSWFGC
Procedure: as §1, §2, §3, §4, §5

| SMILES | IC50 (collagenase (MMP-1)) | IC50 (gelatinase A (MMP-2)) | % inhibition of IL-2-induced peritoneal recruitment of lymphocytes [1] | IC50 (metalloelastase (MMP-12)) |
| --- | --- | --- | --- | --- |
| COc1ccc(N2CCN(C(=O)[C@@H](CC(C)C)CN(O)C=O)CC2)cc1 [Example 1, hydroxy((2S)-2-{[4-(4-methoxyphenyl)piperazin-1-yl]carbonyl}-4-methylpentyl)formamide] | > 5 µM | 0.013 µM | 35 ± 10% | 0.068 µM |
| CC(C)C[C@@H](CN(O)C=O)C(=O)N1CCN(c2ccc(-c3ccccc3)cc2)CC1 [Example 2, {(2S)-2-[(4-biphenyl-4-ylpiperazin-1-yl)carbonyl]-4-methylpentyl}hydroxyformamide] | > 5 µM | 0.009 µM |  | 0.008 µM |
